System: TNF-α
Test: LPS-induced TNF-α expression in mouse bone marrow-derived dendritic cells, ELISA
Assay type: cell-based
Conditions: LPS 100 ng/ml plus BrD1 at different concentrations, 24 h
Description: For mouse bone marrow-derived DCs (BMDCs), five to six-week-old female C57BL/6JNarl mice were purchased from the National Laboratory Animal Center, Taiwan and kept under SPF conditions. BMDCs were generated from bone marrow cells of C57BL/6 mice as described previously (Yin S Y, Wang W H, Wang B X, Aravindaram K, Hwang P I, Wu H M, Yang N S. BMC genomics 2010, 11:612). In brief, bone marrow was isolated from femurs and tibiae which were then flushed with RPMI-1640 medium using a syringe with a 0.45-mm needle on Day 0. Red blood cells in suspension were lysed for […] with ACK lysing buffer (150 mM NH4Cl, 1.0 mM KHCO3, 0.1 mM EDTA). Bone marrow cells were suspended at a density of 1×10^7 cells/30 ml in RPMI-1640 containing 10% FBS, 2 mM L-glutamine, 1% of nonessential amino acids, 100 U/mL penicillin and 100 μg/mL streptomycin supplemented with 20 ng/mL of mGM-CSF in 15-cm dishes at 37° C. with 5% CO2. On day 2, two-thirds of the medium was removed and 30 mL fresh medium with mGM-CSF was added to the cells. On day 5, culture plates were gently swirled and the floating and loosely adherent cells were discarded. Aliquots of 75% culture media were replenished with 20 ng/mL mGM-CSF and 20 ng/mL mIL-4. […]

CCCC(=O)O[C@H]1C/C(C)=C\[C@@H]2OC(=O)[C@]3(C)O[C@]23[C@@H](OC(C)=O)[C@H]2[C@@H](C)[C@@H](O)C[C@H](OC(C)=O)[C@]2(C)[C@H]1OC(C)=O [BrD1, excavatolide B]
TNF-α expression in LPS-stimulated dendritic cells: inhibited TNF-a expression to a much lesser extent | TNF-α expression in LPS-stimulated dendritic cells (listed as Excavatolide B): inhibits TNF-α expression to a much lesser extent
